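Step 1: Grow cells in 96-well plates. Step 2: Expose to compound for 48 hours at 5 concentrations. Step 3: Interpolate endpoints linearly; if unreached, use highest concentration. The concentration for 50% growth inhibition is given as GI50. Definition used: TGI = concentration required for complete inhibition of growth.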 Starred links: 1 amine or outer side, 2 acyl side, 3 side chain; linkers in the order of their positions; H or OH if unused. Non-standard residues stand in square brackets, D forms with d. Residues, ends and D or L forms follow the SMILES beside them. *: point of attachment. X14 = C/C=C/CC(C)C(O)[C@H](N[*:1])C(=O)[*:2]; Decanoyl = CCCCCCCCCC(=O)*; Leu(ol) = CC(C)C[C@H](N)CO; Iva = CC[C@](C)(N)C(=O)O; Aib = CC(C)(N)C(=O)O
Assays:
Experiment in all cases: DTP human tumour cell line panel, 48 h
[1] = tested on: 786-0 renal
[2] = tested on: A498 renal
[3] = tested on: A549 NSCLC
[4] = tested on: ACHN renal
[5] = tested on: BT-549 breast
[6] = tested on: CAKI-1 renal
[7] = tested on: CCRF-CEM leukemia
[8] = tested on: COLO 205 colon
[9] = tested on: DU-145 prostate
[10] = tested on: EKVX NSCLC
[11] = tested on: HCC-2998 colon
[12] = tested on: HCT-116 colon
[13] = tested on: HCT-15 colon
[14] = tested on: HL-60(TB) leukemia
[15] = tested on: HOP-92 NSCLC
[16] = tested on: HS 578T breast
[17] = tested on: HT29 colon
[18] = tested on: IGROV1 ovarian
[19] = tested on: K-562 leukemia
[20] = tested on: KM12 colon
[21] = tested on: LOX IMVI melanoma
[22] = tested on: M14 melanoma
[23] = tested on: MALME-3M melanoma
[24] = tested on: MCF7 breast
[25] = tested on: MDA-MB-231 breast
[26] = tested on: MDA-MB-435
[27] = tested on: MOLT-4 leukemia
[28] = tested on: NCI-H226 lung
[29] = tested on: NCI-H460 lung
[30] = tested on: NCI-H522 lung
[31] = tested on: NCI/ADR-RES ovarian
[32] = tested on: OVCAR-3 ovarian
[33] = tested on: OVCAR-4 ovarian
[34] = tested on: OVCAR-5 ovarian
[35] = tested on: OVCAR-8 ovarian
[36] = tested on: PC-3 prostate
[37] = tested on: RPMI-8226 leukemia
[38] = tested on: RXF 393 renal
[39] = tested on: SF-268 CNS
[40] = tested on: SF-295 CNS
[41] = tested on: SF-539 CNS
[42] = tested on: SK-MEL-2 melanoma
[43] = tested on: SK-MEL-28 melanoma
[44] = tested on: SK-MEL-5 melanoma
[45] = tested on: SK-OV-3 ovarian
[46] = tested on: SN12C renal
[47] = tested on: SNB-19 CNS
[48] = tested on: SNB-75 CNS
[49] = tested on: SR leukemia
[50] = tested on: SW-620 colon
[51] = tested on: TK-10 renal
[52] = tested on: U251 CNS
[53] = tested on: UACC-257 melanoma
[54] = tested on: UACC-62 melanoma
[55] = tested on: UO-31 renal

`C/C=C/CC(C)C(O)[C@H](NC(=O)[C@@H]1CCCN1C(=O)C(C)(C)NC(=O)CCCCCCCCC)C(=O)N[C@@](C)(CC)C(=O)N[C@@H](CCC(N)=O)C(=O)N[C@H](CCC(N)=O)C(=O)NC(C)(C)C(=O)N[C@@](C)(CC)C(=O)N[C@@H](CCC(N)=O)C(=O)N[C@H](CC(C)C)C(=O)N[C@H](CO)CC(C)C` (stereo partly drawn) (Decanoyl-[Aib]P[X14][Iva]Q[dQ][Aib][Iva]Q[dL][Leu(ol)]) gave a GI50 [1] of 284 nM, a TGI [1] of 1440 nM and a GI50 [2] of 242 nM. It also gave a TGI [2] of 721 nM, a GI50 [3] of 95.6 nM and a TGI [3] of 1160 nM. The GI50 [4] was 87.7 nM, the TGI [4] was 1130 nM and the GI50 [5] was 304 nM. The TGI [5] was 829 nM, the GI50 [6] was 206 nM and the TGI [6] was 659 nM. It also gave a GI50 [7] of 152 nM, a TGI [7] of 1180 nM and a GI50 [8] of 49 nM. For the same compound, the TGI [8] was 187 nM, the GI50 [9] was 318 nM and the TGI [9] was 1530 nM. It also gave a GI50 [10] of 173 nM, a TGI [10] of 1430 nM and a GI50 [11] of 107 nM. It also gave a TGI [11] of 1600 nM, a GI50 [12] of 87 nM and a TGI [12] of 1200 nM. The GI50 [13] was 297 nM, the TGI [13] was 1270 nM and the GI50 [14] was 29.1 nM. For the same compound, the TGI [14] was 114 nM, the TGI [15] was 83.6 nM and the GI50 [16] was 297 nM. It also gave a TGI [16] of 1720 nM, a GI50 [17] of 97.4 nM and a TGI [17] of 1350 nM. The GI50 [18] was 406 nM, the TGI [18] was 1750 nM and the GI50 [19] was 41.8 nM. For the same compound, the TGI [19] was 1090 nM, the GI50 [20] was 75.2 nM and the TGI [20] was 1170 nM. It also gave a GI50 [21] of 164 nM, a TGI [21] of 697 nM and a GI50 [22] of 61.5 nM. It also gave a TGI [22] of 1320 nM, a GI50 [23] of 30.9 nM and a TGI [23] of 643 nM. It also gave a GI50 [24] of 59.4 nM, a TGI [24] of 1160 nM and a GI50 [25] of 274 nM. For the same compound, the TGI [25] was 990 nM, the GI50 [26] was 111 nM and the TGI [26] was 1200 nM. For the same compound, the GI50 [27] was 259 nM, the TGI [27] was 1140 nM and the GI50 [28] was 182 nM. The TGI [28] was 1480 nM, the GI50 [29] was 94 nM and the TGI [29] was 1150 nM. It also gave a GI50 [30] of 55 nM, a TGI [30] of 720 nM and a GI50 [31] of 985 nM. The TGI [31] was 2330 nM, the GI50 [32] was 41.7 nM and the TGI [32] was 1310 nM. The GI50 [33] was 82.5 nM, the TGI [33] was 1870 nM and the GI50 [34] was 208 nM. It also gave a TGI [34] of 1290 nM, a GI50 [35] of 199 nM and a TGI [35] of 1330 nM. For the same compound, the GI50 [36] was 52.7 nM, the TGI [36] was 1050 nM and the GI50 [37] was 29.5 nM. For the same compound, the TGI [37] was 140 nM, the GI50 [38] was 259 nM and the TGI [38] was 1260 nM. The GI50 [39] was 281 nM, the TGI [39] was 1360 nM and the GI50 [40] was 48.8 nM. It also gave a TGI [40] of 754 nM, a GI50 [41] of 338 nM and a TGI [41] of 1310 nM. For the same compound, the GI50 [42] was 60.4 nM, the TGI [42] was 688 nM and the GI50 [43] was 62.7 nM. The TGI [43] was 2000 nM, the GI50 [44] was 40.7 nM and the TGI [44] was 200 nM. For the same compound, the GI50 [45] was 233 nM, the TGI [45] was 873 nM and the GI50 [46] was 211 nM. For the same compound, the TGI [46] was 1110 nM, the GI50 [47] was 134 nM and the TGI [47] was 1350 nM. It also gave a GI50 [48] of 174 nM, a TGI [48] of 803 nM and a GI50 [49] of 253 nM. The TGI [49] was 943 nM, the GI50 [50] was 89.2 nM and the TGI [50] was 1330 nM. The GI50 [51] was 67.5 nM, the TGI [51] was 1530 nM and the GI50 [52] was 54.8 nM. It also gave a TGI [52] of 1200 nM, a GI50 [53] of 62.1 nM and a TGI [53] of 758 nM. The GI50 [54] was 103 nM, the TGI [54] was 1470 nM and the GI50 [55] was 212 nM. It also gave a TGI [55] of 1110 nM.

— PubChem BioAssay (NCI)
